Where two headings read alike, the source gives them in different places.
How the values were obtained:
[1] = rat; cited from earlier work
[2] = human trial; cited from earlier work
Cholesterin-Biosynthese = test: Inhibition of cholesterol biosynthesis in cell culture by 14C precursor incorporation into cholesterol; type: cell-based; conditions: HEP G2-Zellen monolayers in lipoprotein-free medium; 1 h preincubation, then 3 h with 14C-Natriumacetat; potency relative to Mevinolin tested in the same way
Excerpt: 2) Prüfung auf Cholesterin-Biosynthese-Hemmung in Zellkulturen durch ¹⁴-Präkursoreinbau in Cholesterin.
Monolayers von HEP G2-Zellen in lipoproteinfreiem Nährmedium wurden mit entsprechenden Konzentrationen der Prüfsubstanzen 1 Stunde vorinkubiert; nach Zugabe des ¹⁴C-markierten Präkursors ¹⁴C-Natriumacetat wurde die Inkubation für 3 Stunden fortgesetzt. Danach wurde ein Teil der Zellen alkalisch verseift bei vorheriger Zugabe eines internen Standards von ³H-Cholesterin. Die Lipide der verseiften Zellen wurden mit Chloroform-Methanol extrahiert. Dieses Lipidgemisch wurde nach Zusatz von Träger-Cholesterin präparativ dünnschichtchromatographisch getrennt, die Cholesterin-Bande nach dem Sichtbarmachen mit Jod-Dämpfen isoliert und die aus dem ¹⁴C-Präkursor gebildete Menge ¹⁴C-Cholesterins szintigraphisch bestimmt. In einem aliquoten Teil der Zellen wurde Zellprotein bestimmt, sodaß die in der Zeiteinheit/mg Zellprotein aus ¹⁴C-Präkursor gebildete Menge ¹⁴C-Cholesterins berechnet werden kann. Zum Vergleich für die Hemmwirkung eines zugesetzten Prüfpräparates diente die Lösungsmittelkontrolle, sodaß direkt die Hemmung der Cholesterin-Biosynthese bei einer bestimmten molaren Konzentration des Prüfpräparates im Medium angegeben werden kann. […]

Row | Structure (SMILES) | cholesterinsenkende Wirkung [1] | cholesterinsenkende Wirkung [2] | relative Weinstärke zu Mevinolin (Cholesterin-Biosynthese) [%]
1 | CC(O)(CC(=O)O)CC(=O)O [3-Hydroxy-3-methyl-glutarsäure] | signifikante cholesterinsenkende Wirkung | signifikante cholesterinsenkende Wirkung | 
2 | CC(C)C(CCC(O)CC(O)CC(=O)[O-])=C(c1ccc(F)cc1)c1ccc(F)cc1.[Na+] (stereo not shown) [Beispiel 11n, 3,5-Dihydroxy-9,9-di-(4-flurophenyl)-8-isopropyl-8-nonensäure-Natriumsalz] |  |  | 30
3 | CC(C)C(C=CC(O)CC(O)CC(=O)[O-])=C(c1ccc(F)cc1)c1ccc(F)cc1.[Na+] (stereo not shown) [Beispiel 11a, 9,9-Di-(4-fluorphenyl)-3,5-dihydroxy-8-isopropyl-6,8-nonadiensäure Natriumsalz] |  |  | 100

From patent publication EP0306649A1, “3,5-Dihydroxycarboxylic acids and their derivatives, processes for their preparation, their use as medicaments, pharmaceutic preparations and intermediate products” (HOECHST AKTIENGESELLSCHAFT, priority 1987, dated 1989)
